Series [1] can be described thus: Brain penetration in rats, brain to plasma ratios (Kp,brain, Kpuu,brain). The class given is in vivo, Sprague-Dawley rats. The note with it: for concentration at 24 h / Kp uu at 24 h: intravenous. The text has this: To understand the brain penetration, brain to plasma ratios of the compounds were obtained in Sprague-Dawley (SD) rats. In vivo equilibrium distribution between blood and brain in preclinical species such as rats is a commonly used parameter to evaluate brain penetration. Kp,brain is the ratio of concentrations in brain and blood (Cbrain/Cplasma) The compound's passive diffusion characteristics, its affinity for membrane transporters at the blood-brain barrier (BBB), and the relative drug binding affinity differences between the plasma proteins and brain tissue influence the Kp,brain.
The animals received IV infusion of 1 mg/kg/hr of the compound over 24 hours via jugular vein cannulation. At 24 hours, blood was collected via tail vein bleeding or cardiac puncture (under anesthesia) and centrifuged to obtain plasma samples. Brain tissues were collected and homogenized with phosphate-buffered saline (PBS). The concentrations of the compounds were obtained in the plasma and brain homogenates by LC-MS/MS analysis.

The nature of series [2]: Rat plasma protein binding, equilibrium dialysis. The class given is in vitro ADME. As to conditions: 100% rat plasma, equilibrium dialysis 5 hours at 37° C.; for fraction unbound at 5 h, 10 μM: read-out: Fraction unbound fu,p, rat plasma. As to the method:
Rat plasma protein binding of 4 and 63 were evaluated in vitro using an equilibrium dialysis method. […] Samples from the donor and receiver sides were analyzed by LC-MS/MS. Plasma protein bound and unbound fractions were calculated using the following equations—d Fraction bound (fb)*(%)=100×([Donor]5h−[Receiver]5h)/[Donor]5h (Equation 1) Fraction unbound (fu),p*(%)=100−% Bound* (Equation 2) where: [Donor]5h is measured donor concentration at 5-hour; [Received]5h is measured receiver concentration at 5-hour; fb* is bound fraction determined from plasma; fu,p* is calculated unbound fraction for plasma. Warfarin and quinidine were used as positive controls.
(In general: In equilibrium dialysis free small molecules cross a membrane that holds back macromolecules.)

A short description of series [3]: Rat brain protein binding in brain homogenate, equilibrium dialysis. As to conditions: equilibrium dialysis 5 hours at 37° C., read-out: fu,brain (brain homogenate). The class given is in vitro ADME. As to the method: Similarly, rat brain protein binding of 4 and 63 were also evaluated in vitro using equilibrium dialysis method. 1 μM of the compound was assessed in brain homogenate in a dialysis block for 5 hours at 37° C. Samples from the donor and receiver sides were analyzed by LC-MS/MS. Brain protein bound and unbound fractions were calculated using the equations mentions above (Equations 1 and 2). Due to extensive protein binding, 4 was diluted further 4× for the brain homogenate measurement. The fu,brain of 4 and 63 were 0.29% and 0.1% respectively.

A short description of series [4]: Rat brain protein binding in rat brain slices. The class given is in vitro ADME. The note with it: rat brain slices (300 um thick); 300 um thick rat brain slices (striatum area); read-out: fu,brain (rat brain slices). As to the method: Alternatively, rat brain protein binding of compounds 4 and 63 was evaluated in vitro by employing 300 um thick rat brain slices (striatum area) in an incubation tray. The fu,brain of compounds 4 and 63 by this method was 0.329% and 0.057% respectively. In that case, the Kp,uu, brain of 4 and 63 are 0.028 and 0.044 respectively.

The nature of series [5]: Monkey brain to plasma ratio (Kp, Kpuu) after iv bolus and 2-hour iv infusion. The class given is in vivo. As to the method: A single IV bolus dose followed by a 2-hour iv infusion of the compound was administered to the monkey (3 monkeys/compound). Blood was collected from a femoral vein predose, right after the bolus administration and at the end of the infusion. The monkey was euthanized after the infusion and brain tissue was collected. Toxicokinetic evaluation of plasma (obtained by centrifugation of blood) and brain (homogenized in a buffer) was conducted to obtain brain to plasma ratio (Kp) of the compound. Kpuu was calculated by taking into consideration the fu,plasma and fu,brain as discussed above.

A further series relates to UT-7 cells. As to the kind of experiment: UT-7 cell proliferation with SCF stimulation as a measure of wild-type KIT activity (CellTiter-Glo). The series is classed as cell-based, human. As to conditions: Homo sapiens, UT7, 72 h, SCF-stimulated UT-7 cell proliferation. An excerpt: UT-7 Cell Proliferation with SCF Stimulation Assay as a Measure of Wild-Type KIT Activity
UT-7 cells are human megakaryoblastic leukemia cell lines that can be grown in culture with dependence on granulocyte macrophage colony stimulating factor (GM-CSF) or stem cell factor (SCF). UT-7 cells respond to SCF stimulation by activation of the KIT receptor tyrosine kinase and subsequent downstream signaling that can support cell growth and proliferation (Kuriu et al, 1999; Komatsu et al, 1991; Sasaki et al, 1995). Test compounds were assayed for their ability to inhibit SCF-stimulated proliferation of UT-7 cells.
Inhibition of SCF-stimulated UT-7 cell proliferation was assessed using the CellTiter-Glo assay that quantifies the amount of adenosine triphosphate (ATP) present, which is a readout of metabolically active cells and is directly proportional to the number of viable cells in culture. The ability of test compounds to inhibit SCF-stimulated UT-7 cell proliferation was determined using a 10-point dose curve ranging from 25 μM to 95.4 pM of test compound.
UT-7 cells were maintained in IMDM supplemented with 10% FBS, 5 ng/mL GM-CSF and 100 units/mL Penicillin-Streptomycin and grown in a 37° C. humidified tissue culture incubator. UT-7 cells were washed once with serum free, GM-CSF free IMDM. Cells were then resuspended in IMDM containing 4% FBS and 50 ng/mL SCF and seeded at 2500 cells per well in a volume of 22 μL in a 384-well microplate. A 10-point dose concentration series of test compounds (25.0 μM to 95.4 pM) were then added to the cells in a volume of 3.1 μL to each well (0.25% DMSO final concentration) and placed in a tissue culture incubator (5% CO2, 37° C.) for 72 hours. After 3-days with test compound, CellTiter-Glo reagent was prepared fresh and 25 μL of reagent was added to each well. The plate was mixed by shaking for 10 minutes at RT at 300 rpm on a plate shaker. The plate was read on an EnVision plate reader using the Ultra Sensitive Luminescence protocol for a 384-well plate.

[6] abbreviates: Sprague-Dawley, rat, brain, 1 mg/kg/hr, individual rats (Rat 1-3), IV infusion 1 mg/kg/hr over 24 hours, at 24 hours, read-out: Brain Concentration.
Setting [7] is: Sprague-Dawley, rat, brain, 1 mg/kg/hr, mean of 3 rats, IV infusion 1 mg/kg/hr over 24 hours, at 24 hours, read-out: Brain Concentration (ng/mL), Mean.
[8] abbreviates: Sprague-Dawley, rat, brain, 1 mg/kg/hr, rat, from total mean brain concentration and fu,brain (homogenate), read-out: Unbound concentration, Brain.
The mark [9] stands for this setting: Sprague-Dawley, rat, plasma, 1 mg/kg/hr, individual rats (Rat 1-3), IV infusion 1 mg/kg/hr over 24 hours, at 24 hours, read-out: Plasma Concentration.
The mark [10] stands for this setting: Sprague-Dawley, rat, plasma, 1 mg/kg/hr, mean of 3 rats, IV infusion 1 mg/kg/hr over 24 hours, at 24 hours, read-out: Plasma Concentration (ng/mL), Mean.
Where [11] appears, read: Sprague-Dawley, rat, plasma, 1 mg/kg/hr, rat, from total mean plasma concentration and fu,p, read-out: Unbound concentration, Plasma.
[12] abbreviates: individual rats (Rat 1-3), IV infusion 1 mg/kg/hr over 24 hours, at 24 hours.
[13] abbreviates: mean of 3 rats, IV infusion 1 mg/kg/hr over 24 hours, at 24 hours.
Where [14] appears, read: rat, unbound brain to plasma ratio, fu,brain from brain homogenate.

SMILES strings stand for the structures. Several values for one entry are separate records, joined by “and”; a condition that tells them apart may be missing. Identical values can stand only once. Like-named read-outs stand apart in the source and are kept apart here.

As for `C[C@](N)(c1ccc(F)cc1)c1cnc(N2CCN(c3ncnn4cc(-c5cnn(CCO)c5)cc34)CC2)nc1` [Compound 4, (S)-2-(4-(4-(4-(5-(1-amino-1-(4-fluorophenyl)ethyl)pyrimidin-2-yl)piperazin-1-yl)pyrrolo[2,1-f][1,2,4]triazin-6-yl)-1H-pyrazol-1-yl)ethanol], the concentration at 24 h in series [1] (setting [6]) was 152 ng/mL; in series [1] (setting [7]), 183 ng/mL; in series [1] (setting [8]) it was 0.53 ng/mL; in series [1] (setting [9]), 859 ng/mL; in series [1] (setting [10]), 1050 ng/mL; in series [1] (setting [11]), 21.9 ng/mL. Besides, the “Brain Concentration” value in series [1] (setting [12]) was 188 ng/mL and 208 ng/mL. Also, in series [1] (setting [12]), the “Kp, brain” value was 0.177 and 0.168 and 0.174. Besides, in series [1] (setting [12]), the “Plasma Concentration” value is 1120 ng/mL and 1180 ng/mL. The “Kp, brain, Mean” value in series [1] (setting [13]) was 0.17 and 0.174. Besides, the “Kp,uu, brain (brain slice method)” value in series [1] (rat, fu,brain from brain slices) was 0.028. The “Kpuu,brain” value in series [1] (setting [14]) is 0.024. For the same compound, in series [2], the “Fraction bound (fb), rat plasma” value is on record as 97.92%. For the same compound, the fraction unbound at 5 h, 10 μM in series [2] was 0.0208. For the same compound, the fraction unbound at 5 h, 1 μM in series [3] was found to be 0.0029. Besides, in series [4], the fraction unbound worked out at 0.00329. For the same compound, in series [5] (IV bolus followed by 2-hour iv infusion), the “Kp (Brain:Plasma)” value turned out to be 0.09. The Kpuu in series [5] (calculated with fu,plasma and fu,brain) is given as 0.01. In the series with UT-7 cells, this compound yielded a 50% inhibitory concentration (IC50) below 90 nM.
`CCn1cc(-c2cc3c(N4CCN(c5ncc([C@@](C)(N)c6ccc(F)cc6)cn5)CC4)ncnn3c2)cn1` [Compound 63, reference compound]: the concentration at 24 h in series [1] (setting [6]) is 1920 ng/mL; in series [1] (setting [7]) it was 1700 ng/mL; in series [1] (setting [8]), 1.7 ng/mL; in series [1] (setting [9]), 1140 ng/mL; in series [1] (setting [10]) it was 1010 ng/mL; in series [1] (setting [11]), 2.02 ng/mL. For the same compound, the Kp uu at 24 h turned out to be 0.044 in series [1] (Sprague-Dawley, rat, brain, 1 mg/kg/hr, rat, fu,brain from brain slices, read-out: Kp,uu, brain (brain slice method)) and 0.84 in series [1] (Sprague-Dawley, rat, brain, 1 mg/kg/hr, rat, unbound brain to plasma ratio, fu,brain from brain homogenate, read-out: Kpuu,brain). Further, the Kp at 24 h in series [1] (Sprague-Dawley, rat, brain, iv, 1 mg/kg/hr, mean of 3 rats, IV infusion 1 mg/kg/hr over 24 hours, at 24 hours, read-out: Kp, brain, Mean) came to 1.8. Further, the “Brain Concentration” value in series [1] (setting [12]) was 1890 ng/mL and 1300 ng/mL. The “Kp, brain” value in series [1] (setting [12]) was 1.68 and 2.40 and 1.18. Besides, in series [1] (setting [12]), the “Plasma Concentration” value was 789 ng/mL and 1100 ng/mL. The “Kp, brain, Mean” value in series [1] (setting [13]) was found to be 1.75. In series [1] (setting [14]), the “Kpuu,brain” value is recorded as 0.84. Further, the “Fraction bound (fb), rat plasma” value in series [2] was 99.8%. Also, the fraction unbound at 5 h, 10 μM in series [2] worked out at 0.002. The fraction unbound at 5 h, 1 μM in series [3] came out at 0.001. For the same compound, the fraction unbound in series [4] worked out at 0.00057. In series [5] (brain, IV bolus followed by 2-hour iv infusion), the Kp at 2 h was 1.86. The Kp uu at 2 h in series [5] (intravenous, calculated with fu,plasma and fu,brain) is 0.92. Also, in the series with UT-7 cells, the IC50 was 150 to 200 nM.

One may read the IC50 as the concentration at which inhibition is half-maximal. As a reminder, the Kp is tissue or fluid exposure divided by exposure in the circulation.
